Key:
[1] = system: adult male ICR mice; experiment: Mouse depression assay; type: in vivo; details: intraperitoneal
[2] = biological target: T1, GPR30 (Homo sapiens, UniProt Q99527); experiment: Intracellular calcium mobilization in indo1-AM-loaded SKBr3 cells; type: cell-based; details: G15 1 μM
[3] = biological target: ERβ (Homo sapiens, UniProt Q92731); experiment: PI3K activation; type: cell-based; details: ERβ-transfected COS7 cells; concentrations 100-fold greater than required to inhibit GPR30
Sequence of ERβ (Q92731 whole entry, species assumed): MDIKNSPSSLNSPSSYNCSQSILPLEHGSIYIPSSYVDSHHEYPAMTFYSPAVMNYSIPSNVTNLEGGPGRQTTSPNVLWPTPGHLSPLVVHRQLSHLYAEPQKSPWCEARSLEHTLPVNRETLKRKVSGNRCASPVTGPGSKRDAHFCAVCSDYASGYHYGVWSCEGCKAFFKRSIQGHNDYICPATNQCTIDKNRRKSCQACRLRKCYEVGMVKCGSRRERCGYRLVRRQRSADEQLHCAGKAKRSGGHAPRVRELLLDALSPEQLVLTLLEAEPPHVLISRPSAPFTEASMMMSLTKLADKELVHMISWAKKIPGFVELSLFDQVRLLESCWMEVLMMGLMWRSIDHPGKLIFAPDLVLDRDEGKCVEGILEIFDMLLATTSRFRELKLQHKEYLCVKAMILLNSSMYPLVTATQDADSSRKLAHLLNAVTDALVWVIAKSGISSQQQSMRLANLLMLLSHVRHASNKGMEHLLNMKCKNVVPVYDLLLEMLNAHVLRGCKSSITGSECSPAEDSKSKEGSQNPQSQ

[4] = system: uterine epithelia; experiment: Mouse uterine estrogenicity assay; type: in vivo; details: G15 plus E2 (0.74 nmol); dose-dependent, maximal at 10-fold molar excess of G15
[5] = biological target: T2, ERα (Homo sapiens, UniProt P03372); experiment: Competitive binding with E2-Alexa633 in COS7 cells transfected with ERα-GFP
T2 sequence (P03372 1-595): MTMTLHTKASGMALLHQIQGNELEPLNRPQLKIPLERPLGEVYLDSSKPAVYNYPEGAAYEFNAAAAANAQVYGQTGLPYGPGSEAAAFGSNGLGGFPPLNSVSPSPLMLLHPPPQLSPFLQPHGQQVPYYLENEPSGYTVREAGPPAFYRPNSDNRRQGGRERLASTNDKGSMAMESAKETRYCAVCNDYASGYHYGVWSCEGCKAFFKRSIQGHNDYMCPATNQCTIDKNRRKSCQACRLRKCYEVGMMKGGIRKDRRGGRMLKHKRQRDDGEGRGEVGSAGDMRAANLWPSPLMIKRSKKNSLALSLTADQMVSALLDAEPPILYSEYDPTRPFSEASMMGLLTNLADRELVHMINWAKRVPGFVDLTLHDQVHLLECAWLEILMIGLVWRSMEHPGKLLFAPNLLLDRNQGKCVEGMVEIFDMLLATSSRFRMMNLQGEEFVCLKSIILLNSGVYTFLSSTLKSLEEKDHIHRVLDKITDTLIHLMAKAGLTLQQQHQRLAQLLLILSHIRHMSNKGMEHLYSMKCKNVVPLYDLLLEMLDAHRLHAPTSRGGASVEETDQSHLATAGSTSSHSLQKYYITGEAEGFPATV

[6] = biological target: T2, ERα; experiment: PI3K activation; type: cell-based; details: ERα-transfected COS7 cells; concentrations 100-fold greater than required to inhibit GPR30
[7] = biological target: T1, GPR30; experiment: PI3K activation; type: cell-based; details: SKBr3 cells
[8] = biological target: T1, GPR30; experiment: PI3K activation; type: cell-based; details: GPR30-transfected COS7 cells

T1 sequence (Q99527 whole entry): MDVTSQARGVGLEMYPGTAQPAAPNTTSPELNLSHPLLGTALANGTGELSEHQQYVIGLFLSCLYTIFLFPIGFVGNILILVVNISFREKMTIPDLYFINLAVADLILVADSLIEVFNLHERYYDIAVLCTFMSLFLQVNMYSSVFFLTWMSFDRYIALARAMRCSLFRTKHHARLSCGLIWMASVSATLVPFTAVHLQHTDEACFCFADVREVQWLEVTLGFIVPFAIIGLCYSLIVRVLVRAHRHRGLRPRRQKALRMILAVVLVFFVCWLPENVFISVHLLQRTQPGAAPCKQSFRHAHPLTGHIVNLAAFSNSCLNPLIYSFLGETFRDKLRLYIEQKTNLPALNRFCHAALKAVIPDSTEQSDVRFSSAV

mobilization of intracellular calcium by compound alone ([2]; G-1 200 nM, E2 100 nM): incapable of inducing a response
effect of G15 exposure on subsequent calcium response to G-1 or estrogen ([2]; then G-1 200 nM or E2 100 nM): substantially reduced the response
effect on estrogen-mediated PI3K response [3]: no effect
Ki [5]: > 10 µM
effect on estrogen-mediated PI3K response [6]: no effect
inhibition of estrogen and G-1 stimulation of PI3K [7]: able to inhibit
inhibition of G-1-mediated activation of PI3K [8]: capable of inhibiting
inhibition of estrogen-mediated PI3K response [8]: effectively blocked
SMILES: Brc1cc2c(cc1[C@@H]1Nc3ccccc3[C@@H]3C=CC[C@@H]31)OCO2 (racemic) [G15, 4-(6-Bromo-benzo[1,3]dioxol-5-yl)-3a,4,5,9b-tetrahydro-3H-cyclopenta[c]quinoline]
effect of G15 pretreatment on the G-1 effect on immobility time ([1]; G15 10 nmol/mouse + G-1 1 nmol/mouse): significantly attenuated
effect of G15 pretreatment on the E2 effect on immobility time ([1]; G15 25 nmol/mouse + soluble E2 5 mg/kg): significantly attenuated
reduction of E2-induced uterine epithelial proliferation [4]: approximately 50%

Source: PMC2864230 (Nature chemical biology, 2009)
